Data from patent publication US12439925B2, “Anti-pathogenic activity of a bifunctional peptidoglycan/chitin hydrolase” (Universiteit Antwerpen, priority 2018, dated 2025).
“Also recorded” adds a separate entry of the source. Where two headings read alike, the source gives them in different places.

How the values were obtained:
[1] = system: C. albicans; assay type: cell-based, Candida albicans; conditions: for effect of acids on hyphal formation in C. albicans: compared with lactic acid
Procedure: (§1) Candida (albicans, dubliensis, and tropicalis) hyphae were induced by incubating 10^6 CFU/ml cells with 10% FCS, for 3 h at 37° C. in the wells of a 24-well plate, in a total volume of 500 μl per repetition and 4 biological repetitions per condition. To investigate the effect of lactobacilli 10^8 CFU/ml L. rhamnosus strains were added to the wells and co-incubated. To investigate the effect of Msp1, 5 μg/ml or 10 μg/ml of purified Msp1 from L. rhamnosus GG or L. rhamnosus GR-1 was added to the wells and co-incubated. To investigate the effect of acids, 100 μl of a 1% lactic acid or 1% butyric acid was added to the wells and co-incubated. After (co-) incubation for 3 h, at least 100 yeast cells and/or hyphae were counted in each well (4 per condition) and the ratio of hyphae to yeast cells was calculated.

[2] = system: C. albicans biofilms; assay: Inhibition of C. albicans biofilm formation (XTT, absorbance 492 nm); assay type: cell-based, Candida albicans; conditions: 24 h
Procedure: The inhibiting effects on C. albicans biofilms were assessed. Briefly, C. albicans was grown overnight in YPD medium and suspended to 10^6 CFU/ml and added to the wells of a 96 well plate (80 μl/well), together with the samples (supernatant, lactic acid, Msp1) or controls (MRS or H20). After incubation for 24 h at 37° C., the biofilms were washed twice and then 2,3-bis (2-methoxy-4- nitro-5-sulfophenyl)-2H-tetrazolium-5-carboxanilide (90 μl, 1 mg/ml) (Sigma Aldrich) and phenazine methosulphate (10 μl, 0.2 mg/ml) (Sigma Aldrich) were added to the wells. After a second incubation (37° C., 30 minutes, in the dark), the absorbance at 492 nm was measured using a Synergy™ HTX multi-mode reader (Biotek, Drogenbos, Belgium).

[3] = Chitinase activity based on breakdown of chitin-azure; assay type: biochemical; conditions: compared with commercial chitinase from Streptomyces griseus; sodium acetate buffer control
Procedure: First, the chitinase activity of Msp1 was investigated based on breakdown of chitin-azure (Sigma), as described previously. Further confirmation was based on inhibition of chitinase activity by 2.5 mM Bisdionine C (Sigma), as described previously.

[4] = system: C. dubliensis; assay: Inhibition of FCS-induced hyphal formation in C. dubliensis; assay type: cell-based, Candida dubliensis; conditions: different concentrations of Msp1
Procedure: as §1

[5] = system: C. tropicalis; assay: Inhibition of FCS-induced hyphal formation in C. tropicalis; assay type: cell-based, Candida tropicalis; conditions: different concentrations of Msp1
Procedure: as §1

Question: For `Cn1cnc2c1c(=O)n(CCCn1c(=O)c3c(ncn3C)n(C)c1=O)c(=O)n2C` [Bisdionine C], which “rescue of C. albicans hyphal morphogenesis from Msp1 inhibition” value ([1]; 2.5 mM Bisdionine C in the presence of Msp1) is on record?
Answer: The value was “partially reversed; also recorded: can prevent hyphal inhibition partially”.

Question: With `Cl` [hydrochloric acid] as the molecule, how does the “effect of acids on hyphal formation in C. albicans” value [1] read?
Answer: Its value is “inhibited hyphae formation significantly”.

Question: With `CCCC(=O)O` [Butyric acid, butyric acid] as the molecule, how does the “effect of acids on hyphal formation in C. albicans” value [1] read?
Answer: The value was “comparable effects”.

Question: With `CC(O)C(=O)O` (centres unmarked) [Lactic acid, lactic acid] as the molecule, how does the “anti-biofilm activity on C. albicans” value ([2]; lactic acid 0.4%) read?
Answer: Its value is “showed anti-biofilm activity”.

Question: And the “reduction of hyphal morphogenesis” value ([1]; 0.5-2% lactic acid, D- and L-lactic acid 1:1)?
Answer: Its value is “reduced hyphal morphogenesis”.

Question: And the “reduction of hyphal morphogenesis” value ([1]; 1% lactic acid (D- and L-lactic acid 1:1))?
Answer: The value was “approximately 50%”.

B1: Msp1: bifunctional peptidoglycan/chitin hydrolase, major secreted protein 1, purified from L. rhamnosus GG supernatant (protein)
chain: MVDSKKVLSVTAGFVGAAGLAALATGANTVSASTGTVSYKSGATTVWNSPSWHQVKRYVTFGDTVQLLGKTVDQNGATWYKVGDNQWIPELYLNVAGKTATVETPSSAASQTAVSQAPASQAPTSQAPATQTPAAPQTDTQTANTQLYVKNIGSAVTVWTTPAYTHATGQYLEGSQTLTAVAQQQANGETWYRLANGGYVPARFVSTTPVAVTPQPAAPQSNEASVASTNTNAANDSAAASSAAASQAAASSAAASTAAANAAVASANATASQAAASEAAASQAAASQAAASQAAASQAAASQAAASQAAASQAAASQAAASQAAASQAAANAAQQAPANQANVTTTQVNANQAQQQTATATPAVNTSNQTAAVSASRQAKIQAVIAIAEQQVGKPYVWGGKGPNSFDCSGLMYYAFLNGAGVNIGGWTVPQESSGTQVSLSALQPGDLLFWGSHGSTYHVALYIGGGTMIQAPQPGENVKYTALAYFMPDFAVRPSL
modifications: Msp1 protein
notes: bifunctional peptidoglycan/chitin hydrolase, major secreted protein 1, purified from L. rhamnosus GG supernatant
Question: Which “breakdown of chitin (chitin-azure)” value [3] does the source give for B1 here?
Answer: The value was “able to break down chitin, to the same extent as a commercially available chitinase; also recorded: can break down chitin derivative, chitin-azure”.

Question: What about the “anti-biofilm activity on C. albicans” value ([2]; Msp1 10 μg/mL) of the same molecule?
Answer: The value was “showed anti-biofilm activity”.

Question: And the “effect on FCS-induced hyphal formation in C. dubliensis” value [4]?
Answer: Its value is “concentration-dependent effect”.

Question: And the “effect on FCS-induced hyphal formation in C. tropicalis” value [5]?
Answer: Its value is “concentration-dependent effect”.

Question: And the “reduction of hyphal morphogenesis” value ([1]; concentrations as low as 5 μg/mL)?
Answer: The value was “more than 50%”.
